Reference: patent US11998014B1, “O-{1-[(3,5-dinitrobenzoyl)amino]propan-2-yl} (4-chlorophenyl)carbamothioate as an eco-friendly insecticidal agent against Spodoptera littoralis (boisd.)” (KING FAISAL UNIVERSITY, priority 2024, dated 2024)
≈ marks a conversion by molar mass, not a printed value. Read-outs that look alike come from different tables or passages of the source.

What was measured:
aquatic insects = settings: cited from earlier work
Spodoptera littoralis = assay: Insecticidal leaf dip bioassay on S. littoralis larvae (castor bean leaf discs); type: in vivo, Spodoptera littoralis (cotton leafworm, laboratory strain); settings: for Toxicity index %: 72 hours, fenoxycarb's LC50 / compound's LC50 * 100; for LC50: Spodoptera littoralis, in Gossypium hirsutum, foliar, 72 h
Protocol: Five concentrations (200, 100, 50, 25, 12.5 ppm) were designed for this synthetic compound and the reference fenoxycarb's compound as the dynamic ingredients based on ppm via diluting the commercial formulation.
In this experiment, the synthetic compound was tested for its insecticidal bioactivity using the industry-standard leaf dip bioassay techniques. Preparation of the compound stocks to create […], 0.1 g of compounds 2 were dissolved in five mL of Dimethyl formamide & combined with 5 mL of distilled water. Until usage, the stocks were kept in a refrigerator. The target substance test results were noted & the concentrations needed to destroy 50% (LC50) of S. littoralis larvae were calculated. The target compound was employed in five different concentrations, and 0.1% Tween 80 was employed as a surfactant. Castor bean leaf discs (nine centimeters in diameter) were dipped in the concentration under test for ten seconds, then fed to 2th and 4th larvae, which were roughly the same size and housed in glass jars (five pound). Each action carried out 3 times with ten larvae each. The mortality equalized via Abbott's formula. Calculations of mortality setback line were measurably rummage via probity analysis. Harmfulness index was strongminded via sun equations. The mortality results of larval insect were estimated through employing probit analysis through a statistics (LDP-line) equation which estimate the LC50 values with 95% fiducially limits of lower, upper confidence limit and slope.

In the case of `CCc1ccc(C(=O)NN(C(=O)c2cc(C)cc(C)c2)C(C)(C)C)cc1` [tebufenozide], the LC50 (aquatic insects) is given as 100 to 1000 mg/L.
Work on `CCOC(=O)NCCOc1ccc(Oc2ccccc2)cc1` [fenoxycarb] yielded a Toxicity index % (Spodoptera littoralis; 2nd instar larvae) of 100%, a Toxicity index % (Spodoptera littoralis; 4th instar larvae) of 100% and an LC50 (Spodoptera littoralis; read-out: LC50 (mg/L) at 95%, 2nd instar larvae, after 72 hours of treatment, leaf dip) of 5.94 mg/L (≈ 19.7 µM). It also gave an LC50 (Spodoptera littoralis; read-out: LC50 (mg/L) at 95%, 4th instar larvae, after 72 hours of treatment, leaf dip) of 59.9 mg/L (≈ 199 µM).
In the case of `CC(CNC(=O)c1cc([N+](=O)[O-])cc([N+](=O)[O-])c1)OC(=S)Nc1ccc(Cl)cc1` (stereo not shown) [Compound 2, O-{1-[(3,5-dinitrobenzoyl)amino]propan-2-yl} (4-chlorophenyl)carbamothioate], the Toxicity index % (Spodoptera littoralis; 2nd instar larvae) was 47.52%, the “LC50 (mg/L) at 95%” value (Spodoptera littoralis; 2nd instar larvae, after 72 hours of treatment, leaf dip) was “about 12.505 mg/L” and the Toxicity index % (Spodoptera littoralis; 4th instar larvae) was 88.23%. The LC50 (Spodoptera littoralis; 2nd instar larvae, after 72 hours of treatment, leaf dip, read-out: LC50 (mg/L) at 95%) was 12.5 mg/L (≈ 28.5 µM) and the LC50 (Spodoptera littoralis; 4th instar larvae, after 72 hours of treatment, leaf dip, read-out: LC50 (mg/L) at 95%) was ~67.9 mg/L (≈ 155 µM).
